How the values were obtained:
[1] = human, plasma, 3 h, 20 µM
[2] = pampa, 5 h
in vitro = conditions: CD1, mouse
[3] = Stability of compound in human plasma assessed as half life at 20 uM incubated for 3 hrs by LC-MS (SIM) assay; type: ADME, cell-free

Row | SMILES | Stabilty [1] | permeability [2] [%] | half-life at 4 h, 10 µM (in vitro; liver microsomes) [h] | other results
1 | CCCCC1CCCN1C(=O)[C@@H]1CCC[C@H](c2cccc(-n3ncc(C(=O)O)c3C3CC3)c2)C1 (some centres not stated) | Stable | – | – | –
2 | COc1cccc(S(=O)(=O)N(CC(=O)O)c2cccc(-n3ncc(C(=O)O)c3[C@H]3C[C@@H]3c3ccccc3)c2)c1 (relative stereo) | Stable | < 2 | 4 | –
3 | CCN(CC)CCOC(=O)c1ccc(N)cc1 [PROCAINE] | – | – | – | half-life at 20 µM [3]: 2 min
4 | CC(C)NCC(O)COc1cccc2ccccc12 (configuration not stated) [PROPRANOLOL] | – | – | – | half-life at 4 h, 10 µM (in vitro; microsomes): 0.617 h

Second part, led by results:

Row | Stabilty [1] | permeability [2] [%] | half-life at 4 h, 10 µM (in vitro; liver microsomes) [h] | SMILES | other results
5 | – | < 2 | 4 | O=C(O)CN(c1cccc(-n2ncc(C(=O)O)c2C2CC2)c1)S(=O)(=O)c1ccccc1 | –
6 | Stable | < 2 | 4 | O=C(O)c1cnn(-c2cccc(NS(=O)(=O)c3ccccc3)c2)c1C1CC1 | –
7 | – | < 2 | – | CNC(=O)c1cnn(-c2cccc(NS(=O)(=O)c3ccccc3)c2)c1C1CC1 | –
